What was measured:
[1] = Selectivity index, ratio of Ki for human G6PD to Ki for Plasmodium falciparum GluPho
[2] = biological target: T1, Glucose-6-phosphate 1-dehydrogenase (Homo sapiens, UniProt P11413); assay: Binding affinity to human G6PD
[3] = Binding affinity to Plasmodium falciparum GluPho
[4] = Inhibition of Trypanosoma cruzi G6PD
[5] = tested on: Trypanosoma cruzi; assay: Trypanocidal activity against Trypanosoma cruzi assessed as lethal dose; assay type: functional; settings: read-out: LD50 (the source's name)
[6] = biological target: T1, Glucose-6-phosphate 1-dehydrogenase; assay: Inhibition of human C-terminal His tagged G6PD overexpressed in Escherichia coli BL21
[7] = Inhibition of Plasmodium falciparum GluPho
[8] = Inhibition of Trypanosoma cruzi G6PD expressed in Escherichia coli BL21 (DE3) by G6PDH-diaphorase-resorufin coupled assay
[9] = Inhibition of Plasmodium falciparum recombinant GluPho measured for 20 to 30 mins by multiwell plate reader method
[10] = tested on: Plasmodium falciparum; assay: Antimalarial activity against Plasmodium falciparum 3D7 incubated for 48 hrs followed by [3H]-hypoxanthine addition measured after 24 hrs by microdilution method; assay type: functional, organism-based
[11] = Antiproliferative activity against human MCF10AT1 cells; assay type: functional, cell-based
[12] = biological target: T1, Glucose-6-phosphate 1-dehydrogenase; assay: Inhibition of human G6PD
[13] = biological target: T1, Glucose-6-phosphate 1-dehydrogenase; assay: Binding affinity to G6PD (unknown origin) assessed as Gibbs free energy
[14] = Inhibition of Plasmodium vivax G6PD

T1 sequence (P11413 whole entry): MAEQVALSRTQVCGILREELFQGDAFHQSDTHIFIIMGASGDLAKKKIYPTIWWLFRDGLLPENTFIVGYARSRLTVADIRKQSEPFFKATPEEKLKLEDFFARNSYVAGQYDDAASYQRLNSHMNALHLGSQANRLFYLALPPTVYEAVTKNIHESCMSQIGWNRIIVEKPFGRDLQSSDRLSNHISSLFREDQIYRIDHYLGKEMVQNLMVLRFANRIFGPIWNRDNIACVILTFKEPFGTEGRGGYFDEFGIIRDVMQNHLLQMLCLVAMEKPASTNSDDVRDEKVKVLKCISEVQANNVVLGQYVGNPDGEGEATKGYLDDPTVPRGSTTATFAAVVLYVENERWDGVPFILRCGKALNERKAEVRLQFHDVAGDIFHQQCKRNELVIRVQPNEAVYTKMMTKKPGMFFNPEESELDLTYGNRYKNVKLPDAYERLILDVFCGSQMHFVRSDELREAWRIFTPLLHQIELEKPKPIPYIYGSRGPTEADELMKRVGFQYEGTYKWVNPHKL

With CO[C@H]1O[C@H](CS(=O)(=O)CCNC(=N)N)[C@@H](O)[C@H](O)[C@H]1O as the compound, how does the Ratio Ki [1] read?
Its Ratio Ki is 0.5.

And the Ki [2]?
The Ki was 16.8 µM.

And the Ki [3]?
The Ki was 32.4 µM.

What does the source list for C[C@]12CC[C@H](O)C[C@@H]1CC[C@@H]1[C@@H]2CC[C@]2(C)C(=O)[C@H](Br)C[C@@H]12 [16.ALPHA.-BROMOEPIANDROSTERONE]?
IC50 [4]: 0.086 µM; LC50 [5]: 12 µM

With CO[C@H]1O[C@H](CSCCC#N)[C@@H](O)[C@H](O)[C@H]1O as the compound, how does the Ratio Ki [1] read?
Its Ratio Ki is > 0.8.

And the Ki [3]?
Its Ki is 259 µM.

With COc1cc(/C=C2\C(=O)N(c3nc(-c4ccc(Cl)cc4)cs3)N=C2C)cc(OC)c1OC as the compound, how does the IC50 [6] read?
The IC50 was 0.6 µM.

What about the IC50 [7] of the same compound?
Its IC50 is 1.7 µM.

For O=C1Nc2ccc(Br)cc2/C1=C1/SC(=S)N(C(Cc2ccccc2)C(=O)O)C1=O (stereo unspecified), which IC50 [6] is on record?
The IC50 was 3.1 µM.

Which IC50 [8] does the source give for COc1ccc(N2CCN(c3nc(C)c4c(n3)CCCC4=O)CC2)cc1 here?
Its IC50 is 0.61 µM.

What does the source list for Cc1ccc(Nc2ncc3c(n2)CCCC3=O)cc1?
IC50 [4]: 10 µM; IC50 [8]: 0.48 µM

For COc1ccc(-c2ccc(C=C3C(=O)NC(=O)NC3=O)o2)c([N+](=O)[O-])c1, which IC50 [9] is on record?
Its IC50 is 4.6 µM.

With O=S(=O)(Nc1ccc(O)c2ccccc12)c1ccc(F)cc1 as the compound, how does the IC50 [10] read?
Its IC50 is 3.9 µM.

And the IC50 [9]?
The IC50 was 30 µM.

What does the source list for CO[C@H]1O[C@H](CS(=O)(=O)CCCN)[C@@H](O)[C@H](O)[C@H]1O?
Ratio Ki [1]: 1; Ki [3]: 34.4 µM

For CO[C@H]1O[C@H](CS(=O)(=O)CCC#N)[C@@H](O)[C@H](O)[C@H]1O, which Ratio Ki [1] is on record?
The Ratio Ki was > 2.9.

And the Ki [3]?
The Ki was 68.8 µM.

For CC(C)(C)c1ccc(Oc2ccc(N)cn2)cc1 [LIMANTRAFIN], which IC50 [10] is on record?
Its IC50 is 0.97 µM.

What about the IC50 [9] of the same compound?
Its IC50 is 1.5 µM.

With Cc1ccc(C)c(S(=O)(=O)Nc2ccc(O)c3ccccc23)c1 as the compound, how does the IC50 [10] read?
The IC50 was 5.3 µM.

And the IC50 [9]?
Its IC50 is 22 µM.

And the IC50 [6]?
Its IC50 is 0.2 µM.

And the IC50 [11]?
Its IC50 is 25 µM.

Which results are given for O=c1c2ccccc2nc(-c2cccnc2)n1-c1ccc(Br)cn1?
IC50 [9]: 4.5 µM; IC50 [6]: 2.6 µM; IC50 [12]: 2.6 µM

Which deltaG [13] does the source give for O=C(Nc1ccc(Cl)cc1)Nc1ncc([N+](=O)[O-])s1 here?
The deltaG was -6.91 kcal/mol.

For CO[C@H]1O[C@H](CS(=O)(=O)CCN)[C@@H](O)[C@H](O)[C@H]1O, which Ratio Ki [1] is on record?
Its Ratio Ki is > 18.

What about the Ki [2] of the same compound?
Its Ki is > 400 µM.

What about the Ki [3] of the same compound?
The Ki was 22.8 µM.

Which Ratio Ki [1] does the source give for CO[C@H]1O[C@H](CSCCNC(=N)N)[C@@H](O)[C@H](O)[C@H]1O here?
Its Ratio Ki is > 4.4.

And the Ki [3]?
The Ki was 45.6 µM.

For Cc1cccc(Nc2ncc3c(n2)CCCC3=O)c1, which IC50 [4] is on record?
The IC50 was 0.63 µM.

Which IC50 [9] does the source give for O=C1NC(=O)N(c2ccc(O)cc2)C(=O)/C1=C\c1ccc(-c2ccccc2[N+](=O)[O-])o1 here?
The IC50 was 19.9 µM.

Which IC50 [10] does the source give for CCN1CCC[C@@H]1CNC(=O)c1ccc2c(c1)NC(=O)/C(=C/c1ccccc1F)S2 here?
Its IC50 is 2.3 µM.

Which results are given for CCN1CCC[C@@H]1CNC(=O)c1ccc2c(c1)NC(=O)c1cccc(C)c1S2?
IC50 [14]: 15.3 µM; IC50 [7]: 0.19 µM

With CO[C@H]1O[C@H](CS(=O)(=O)CCCNC(=N)N)[C@@H](O)[C@H](O)[C@H]1O as the compound, how does the Ratio Ki [1] read?
The Ratio Ki was 0.5.

And the Ki [3]?
The Ki was 42.9 µM.

Which IC50 [9] does the source give for Cc1cccc(N2C(=O)NC(=O)/C(=C/c3ccc(-c4ccc([N+](=O)[O-])cc4C)o3)C2=O)c1 here?
The IC50 was 5.1 µM.

Which results are given for CO[C@H]1O[C@H](CSCCCN)[C@@H](O)[C@H](O)[C@H]1O?
Ratio Ki [1]: 0.4; Ki [3]: 289 µM

Which IC50 [9] does the source give for COc1ccc(-n2c(-c3cccnc3)nc3ccccc3c2=O)cc1 here?
Its IC50 is 7.6 µM.

And the IC50 [6]?
The IC50 was 3 µM.

What about the IC50 [12] of the same compound?
The IC50 was 3 µM.

With CO[C@H]1O[C@H](CSCCN)[C@@H](O)[C@H](O)[C@H]1O as the compound, how does the Ratio Ki [1] read?
The Ratio Ki was 26.

With O=C(Cn1ccnc1[N+](=O)[O-])NCc1ccccc1 [BENZNIDAZOLE] as the compound, how does the IC50 [4] read?
Its IC50 is 8.5 µM.

For CCCCCCCn1cnc2sc(C(N)=O)c(C)c2c1=O, which IC50 [8] is on record?
Its IC50 is 4.9 µM.

— ChEMBL document CHEMBL5120775, “Boosting the Discovery of Small Molecule Inhibitors of Glucose-6-Phosphate Dehydrogenase for the Treatment of Cancer, Infectious Diseases, and Inflammation” (J Med Chem, 2022)
